Patent US20130281399A1, “TREATMENT OF DISEASES BY EPIGENETIC REGULATION” (RVX Therapeutics Inc., priority 2012, published 2013)

Tests used:
Brd4 bromodomain 1 = molecular target: T1, Brd4 bromodomain 1 (Homo sapiens, UniProt O60885); experiment: Inhibition of binding of tetra-acetylated histone H4 to Brd4 bromodomain 1 (TR-FRET); conditions: His-tagged Brd4 bromodomain 1 200 nM, tetra-acetylated histone H4 peptide 25-50 nM, 2 hours room temperature
T1 construct: made in house; host or cells: E. coli BL21(DE3)
In short: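 His-tagged Brd4 BD1 was expressed in E. coli and purified by Ni affinity and size exclusion. TR-FRET competition with tetra-acetylated H4 was run in 30 mM HEPES pH 7.4, 30 mM NaCl, 0.3 mM CHAPS, 20 mM phosphate pH 7.0, 320 mM KF and 0.08% BSA, with 0.2% DMSO.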

c-myc = experiment: Inhibition of c-myc expression in MV4-11 cells (real-time PCR of mRNA); format: cell-based, Human; parameters: key: Active: Compounds with an IC50 value less than 30 uM were deemed to be active; conditions: 3 hours at 37° C.
Protocol: MV4-11 cells (2.5×10^4 cells) were plated in 96 well U-bottom plates with test compound or DMSO (0.1%), and incubated for 3 hours at 37° C. Cells were then harvested by centrifugation, lysed, and mRNA was isolated using the mRNA catcher plus kit (Invitrogen). Reverse transcription of the mRNA and duplex amplification of the c-myc and cyclophilin cDNAs was performed using the RNA Ultrasense kit (Invitrogen) and a ViiA7 real-time PCR machine (Applied Biosystems). IC50 values were determined from a dose response curve.

Human AML MV-4-11 cells = experiment: Inhibition of cell proliferation in human AML MV-4-11 cells (CellTiter Aqueous One); format: cell-based; parameters: key: Active: Compounds with an IC50 value less than 30 μM were deemed to be active; conditions: 72 hours, 30 μM to 0.2 μM
Protocol: MV4-11 cells: 96-well plates were seeded with 5×10^4 cells per well of exponentially growing human AML MV-4-11 (CRL-9591) cells and immediately treated with two-fold dilutions of test compounds, ranging from 30 μM to 0.2 μM. Triplicate wells were used for each concentration, as well as a media only and three DMSO control wells. The cells and compounds were incubated at 37° C., 5% CO2 for 72 hours before adding 20 μL of the CellTiter Aqueous One Solution (Promega) to each well and incubated at 37° C., 5% CO2 for an additional 3-4 hours. The absorbance was taken at 490 nm in a spectrophotometer and the percentage of proliferation relative to DMSO-treated cells was calculated after correction from the blank well. IC50 were calculated using the GraphPad Prism software.

IL-6 = conditions: cited from earlier work
[1] = murine model; Lamotte et al. (2012); cited from earlier work
[2] = test system: NUT (nuclear protein in testis) midline carcinoma (NMC); conditions: Filippakopoulos et al. (2010); cited from earlier work
multiple myeloma = conditions: associated with cell cycle arrest and cellular senescence; Delmore et al. (2011); cited from earlier work

| SMILES | FRET activity (<50 uM) (Brd4 bromodomain 1) | melting point | c-myc activity (<30 uM) (c-myc) | cell proliferation activity (<30 uM) (Human AML MV-4-11 cells) | further results |
| --- | --- | --- | --- | --- | --- |
| COc1cc(OC)c2c(=O)[nH]c(-c3ccc(N4CCN(C(C)C)CC4)cc3)nc2c1 [Example 10, 2-(4-(4-Isopropylpiperazin-1-yl)phenyl)-5,7-dimethoxyquinazolin-4(3H)-one] | Active |  | Active | Inactive |  |
| CCNC(=O)C[C@@H]1N=C(c2ccc(Cl)cc2)c2cc(OC)ccc2-n2c(C)nnc21 [I-BET] |  |  |  |  | IL-6 expression in vivo (IL-6): decrease IL-6 expression |
| COc1cc(OC)c2c(=O)[nH]c(-c3ccc(OCCN4CCCC4)c(C)c3)nc2c1 [Example 73, 5,7-Dimethoxy-2-(3-methyl-4-(2-(pyrrolidin-1-yl)ethoxy)phenyl)quinazolin-4(3H)-one] | Active | 230 to 231 °C | Active |  |  |
| COc1cc2c(cc1-c1c(C)noc1C)ncc1[nH]c(=O)n([C@H](C)c3ccccn3)c12 [I-BET151] |  |  |  |  | IL-6 expression in vivo (IL-6): decrease IL-6 expression; bacterial-induced inflammation and sepsis [1]: suppress bacterial-induced inflammation and sepsis |
| Cc1sc2c(c1C)C(c1ccc(Cl)cc1)=N[C@@H](CC(=O)OC(C)(C)C)c1nnc(C)n1-2 [JQ1] |  |  |  |  | antitumor activity in murine xenograft models of NMC [2]: potent antitumor activity; antiproliferation in multiple myeloma (multiple myeloma): potent antiproliferator |
| COc1cc(OC)c2c(=O)[nH]c(-c3ccc(OCCN4CCCC4)cc3)nc2c1 [Example 76, 5,7-Dimethoxy-2-(4-(2-(pyrrolidin-1-yl)ethoxy)phenyl)quinazolin-4(3H)-one] | Active | 226 to 227 °C |  |  |  |
| COc1cc(OC)c2c(=O)[nH]c(-c3cc(C)c(OCCN4C(=O)CN(C(C)C)C4=O)c(C)c3)nc2c1 [Example 74, 3-(2-(4-(5,7-Dimethoxy-4-oxo-3,4-dihydroquinazolin-2-yl)-2,6-dimethylphenoxy)ethyl)-1-isopropylimidazolidine-2,4-dione] | Active | 219 to 221 °C |  |  |  |

The next lines start with results.

| FRET activity (<50 uM) (Brd4 bromodomain 1) | melting point | SMILES | c-myc activity (<30 uM) (c-myc) | cell proliferation activity (<30 uM) (Human AML MV-4-11 cells) | further results |
| --- | --- | --- | --- | --- | --- |
| Active | 159 to 160 °C | COc1cc(OCCN2CCCC2)cc(-c2nc3cc(OC)cc(OC)c3c(=O)[nH]2)c1 [Example 114, 5,7-Dimethoxy-2-(3-methoxy-5-(2-(pyrrolidin-1-yl)ethoxy)phenyl)quinazolin-4(3H)-one] | Active | Active |  |
| Active | 111.8 to 113.6 °C | COc1cc(OC)c2c(=O)[nH]c(-c3cc(C)c(OCCN4CC(NC(C)=O)C4)c(C)c3)nc2c1 [Example 87, N-(1-(2-(4-(5,7-Dimethoxy-4-oxo-3,4-dihydroquinazolin-2-yl)-2,6-dimethylphenoxy)ethyl)azetidin-3-yl)acetamide] |  |  |  |
| Inactive | 264 to 265 °C | COc1cc(OCCNC(C)=O)cc(-c2nc3cc(OC)cc(OC)c3c(=O)[nH]2)c1 [Example 115, N-(2-(3-(5,7-dimethoxy-4-oxo-3,4-dihydroquinazolin-2-yl)-5-methoxyphenoxy)ethyl)acetamide] | Inactive | Active |  |
